# Experimental data taken from US4775524A, “Method of treating hyperproliferative skin disease with substituted heterospiro pyridine derivatives” (Schering Corporation, priority 1986, dated 1988).
# System: arachidonic acid-induced inflammatory reaction, mouse ear
# Assay: Arachidonic Acid Mouse Ear Test
# Assay type: in vivo, Charles River, female, CD, (SD) BR mice
# Conditions: topical, 30 minutes prior to AA challenge; for Tissue Wt.: 6 mm punch biopsy 1 hour after AA, mean ± standard error; for % Inhibition: biopsy 1 hour after AA
# Description: A compound of formula I may be utilized to treat hyperoroliferative skin disease in a mammal. As used herein, "hyperproliferative skin disease" means any condition a symptom of which is accelerated skin cell production, flaking, scales or papular lesions. Representative examples of hyperproliferative skin diseases include osoriasis, eczema, dandruff and the like. […] The Arachidonic Acid Mouse Ear Test is a recognized model for assessing the effectiveness of compounds for the treatment of hyperproliferative skin disease.
# Charles River, female, CD, (SD) BR mice, 6 weeks old, are caged 8/group and allowed to acclimate 1-3 weeks prior to use.
# Arachidonic acid (AA) is dissolved in reagent grade acetone (2 mg/0.01 ml) and stored at -20° C. for a maximum of 1 week prior to use. Inflammatory reactions are induced by applying 10 μl of AA to both surfaces of one ear (4 mg total).
# Test drugs are dissolved in either reagent grade acetone or acueous ethanol (only if insoluble in acetone) at the same doses selected by Opas et al., Fed. Proc. 43, Abstract 2983, P. 1927 (1984) and Young et al., J. Invest. Dermatol. 82, pp. 367-371 (1984). These doses are employed to ensure maximum responses and to overcome any difference in topical absorption which could occur with any drug applied in an aqueous ethanol vehicle. The test drug is applied 30 minutes prior to challenge with AA.
# The severity of the skin reaction is measured as a function of increased ear weight. A 6 mm punch biopsy is removed 1 hour after AA challenge and weighed to the nearest 0.1 mg. Mean ± standard error and all possible comparisons are made via Duncan's Multiple Range Statistic.
smiles,measurement,setting,value
"O=C1c2cccnc2N(c2ccccc2)C(=O)C12CCCCO2 (centres unmarked) [1-Phenyl-3',4',5',6'-tetrahydro-spiro-[1,8-naphthyridine-3,2'-(2H)pyran]-2,4-dione]",Tissue Wt.,dose 0.125 mg/ear,4.86 ± 0.39 mg
same,% Inhibition,dose 0.125 mg/ear,30%
same,Tissue Wt.,dose 0.25 mg/ear,4.97 ± 0.7 mg
same,% Inhibition,dose 0.25 mg/ear,28%
same,Tissue Wt.,dose 0.5 mg/ear,4.39 ± 0.62 mg
same,% Inhibition,dose 0.5 mg/ear,37%
same,Tissue Wt.,dose 1.0 mg/ear,2.27 ± 0.29 mg
same,% Inhibition,dose 1.0 mg/ear,67%
